Test: DPPH radical scavenging assay (cell-free)
Conditions: 30 min, MeOH
Method: The 2,2-diphenyl-1-picryl-hydrazyl-hydrate (DPPH) radical scavenging activity was tested as described previously. The compounds were dissolved in MeOH, and the solutions (120 µL) were dispensed into wells of a 96-well microplate. The DPPH (Sigma-Aldrich, Steinheim, Germany) was dissolved in MeOH at a concentration of 7.5 × 10^−3 M and the solution (30 µL) was added to each well. The concentrations of tested compounds in the mixtures were 10 and 100 µM. Ascorbic acid was used as a positive control. The mixtures were shaken and left for 30 min. The absorbance of the resulting solutions was measured at λ = 520 nm with a MultiscanFC plate reader (Thermo Scientific, Waltham, MA, USA). The concentration scavenging 50% of the DPPH radical (EC50) was calculated for each compound.

In the case of `O=C1O[C@H]([C@@H](O)CO)C(O)=C1O` [Ascorbic acid, reference compound], the EC50 is reported as 20.5 ± 1.5 µM.

Reference: article PMC7698842, “Lanostane Triterpenoid Metabolites from a Penares sp. Marine Sponge Protect Neuro-2a Cells against Paraquat Neurotoxicity” (Molecules, 2020)
